Experimental data taken from patent publication US10392389B2, “Heterocyclic compounds for the inhibition of PASK” (BioEnergenix, LLC, priority 2012, dated 2019).

Target: T1, PASK (Invitrogen) (Homo sapiens, UniProt Q96RG2)
T1 construct: IC50 Kinase Domain; purchased Invitrogen
Experiment: PAS Kinase FRET Assay
Type: biochemical
Details: PAS kinase TR-FRET assay (665 nm/615 nm); read-out: IC50 Kinase Domain
Excerpt: Biochemical Assay for hPASK Activity
The aim of the FRET assay is to determine the inhibition potential of test compounds on targeted kinase. This assay platform provides a homogenous screening method for measuring kinase activity by quantitating the amount of phospho-substrate in solution following a kinase reaction.
In the presence of kinase and ATP, the Ulight-peptide is phosphorylated and captured by an anti-phospho-substrate antibody, which brings the Eu chelate donor and Ulight acceptor dyes into close proximity. Upon excitation at 340 nm, the Eu chelate transfers its energy to the Ulight dye, resulting in a fluorescent light emission at 665 nm.
Titration of kinase at 1 mM ATP was achieved via the following protocol. After making serial three-fold dilutions of PASK (Invitrogen) in reaction buffer across the plate; 5 μl of kinase dilution and 5 μl substrate/ATP mix were added to the wells of the white Optiplate-384 (PerkinElmer). The contents of the plate were and incubated at RT for 1 h. The reaction was stopped by adding 5 μl of stop solution to each test well followed by mixing and incubation at RT for 10 minutes. 5 μl of detection mix (detection antibody diluted in detection buffer) was added; the contents of the plate were mixed and then incubated in the dark for 1 hour at RT. The signal was recorded at TR-FRET mode (665 nm/615 nm). The results were graphed to calculate the EC50.
Titration of ATP at the EC50 concentration of kinase to determine ATP Km,app. was performed using the following method. After making serial dilutions of ATP (Invitrogen), 5 μl of ATP dilution and 5 μl substrate/kinase mix were added to the wells of the white Optiplate-384 (PerkinElmer). The contents of the plate were and incubated at RT for 1 h. The reaction was stopped by adding 5 μl of stop solution to each test well followed by mixing and incubation at RT for 10 minutes. 5 μl of detection mix (detection antibody diluted in detection buffer) was added; the contents of the plate were mixed and then incubated in the dark for 1 hour at RT. The signal was recorded at TR-FRET mode (665 nm/615 nm). The results were graphed to calculate the EC50 as the ATP Km,app.
Compound screening was done via the following method. 10 mM stock solution of test compound in DMSO was prepared by dissolving test compound in DMSO at RT for 1 hour, and then sonicating at 100% output for 8 minutes. If compound is not soluble under this condition, it was diluted to 3 mM. Kinase reaction buffer was prepared containing 10 mM MgCl2, 50 mM HEPES, 1 mM EGTA, 0.01% TWEEN-20, 2 mM DTT. Serial dilutions of the test compounds were prepared at 4× final assay concentrations using Freedom EVO200® dispensing system as follows: 12×10^−5 M, 4×10^−5 M, 1.33×10^−5 M, 4.44×10^−6 M, 1.48×10^−6 M, 4.92×10^−7 M, 1.65×10^−7 M, […], 1.82×10^−8M, 6.09×10^−9, 2.03×10^−9 M. Test compounds (2.5 μl at 4× the final assay concentration) was added to wells using Freedom EVO200® dispensing system. As a positive control, 2.5 μl of positive compound was added to assay wells, and 2.5 μl of DMSO to assay wells as vehicle control. Kinase solution was prepared in reaction buffer at 2× final assay concentration. Kinase solution (5 μl) was added to each well of the assay plate. The substrate and ATP solution was prepared in kinase reaction buffer at 4× final assay concentration. The kinase reaction was started by adding 2.5 μl of substrate+ATP mix solution to each well of the assay plate. The plate is mixed on a plate shaker; then covered and allowed to react for 2 hours in the dark at 25° C. without shaking. The reaction was stopped by adding 5 μl of stop solution to each test well followed by mixing and incubation at RT for 10 minutes in the dark. 5 μl of detection mix (detection antibody diluted in detection buffer) was added; the contents of the plate were mixed and then incubated in the dark for 1 hour at RT. The signal was recorded at TR-FRET mode (665 nm/615 nm).

T1 sequence (Q96RG2 999-1251 limits assumed): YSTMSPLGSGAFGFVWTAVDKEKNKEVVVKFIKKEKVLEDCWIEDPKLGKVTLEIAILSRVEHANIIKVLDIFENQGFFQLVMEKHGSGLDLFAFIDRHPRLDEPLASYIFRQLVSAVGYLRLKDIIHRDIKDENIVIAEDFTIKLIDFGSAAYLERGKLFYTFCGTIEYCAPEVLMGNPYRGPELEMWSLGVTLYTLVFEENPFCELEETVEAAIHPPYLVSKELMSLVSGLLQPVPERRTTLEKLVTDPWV

SMILES: CCc1cnc(-c2cnn3c(=O)cc(-c4ccc5[nH]nnc5c4)[nH]c23)o1 [Example 6, 5-(1H-1,2,3-benzotriazol-5-yl)-3-(5-ethyl-1,3-oxazol-2-yl)-4H,7H-pyrazolo[1,5-a]pyrimidin-7-one]
- IC50: ≤ 10 µM

SMILES: Cc1noc(-c2cnn3c(=O)cc(-c4ccc(Cl)cc4)[nH]c23)n1 [Example 7, 5-(4-chlorophenyl)-3-(3-methyl-1,2,4-oxadiazol-5-yl)-4H,7H-pyrazolo[1,5-a]pyrimidin-7-one]
- IC50: ≤ 10 µM

SMILES: Cc1noc(-c2c(C)nn3c(=O)cc(-c4ccc(Cl)cc4)[nH]c23)n1 [Example 8, 5-(4-chlorophenyl)-2-methyl-3-(3-methyl-1,2,4-oxadiazol-5-yl)-4H,7H-pyrazolo[1,5-a]pyrimidin-7-one]
- IC50: ≤ 10 µM

SMILES: Cc1noc(-c2c(O)nn3c(=O)cc(-c4ccc(Cl)cc4)[nH]c23)n1 [Example 9, 5-(4-chlorophenyl)-2-hydroxy-3-(3-methyl-1,2,4-oxadiazol-5-yl)-4H,7H-pyrazolo[1,5-a]pyrimidin-7-one]
- IC50: ≤ 10 µM

SMILES: COc1nn2c(=O)cc(-c3ccc(Cl)cc3)[nH]c2c1-c1nc(C)no1 [Example 10, 5-(4-chlorophenyl)-2-methoxy-3-(3-methyl-1,2,4-oxadiazol-5-yl)-4H,7H-pyrazolo[1,5-a]pyrimidin-7-one]
- IC50: ≤ 10 µM

SMILES: Cc1coc(-c2cnn3c(=O)cc(-c4ccc5[nH]nnc5c4)[nH]c23)n1 [Example 11, 5-(1H-1,2,3-benzotriazol-5-yl)-3-(4-methyl-1,3-oxazol-2-yl)-4H,7H-pyrazolo[1,5-a]pyrimidin-7-one]
- IC50: ≤ 10 µM

SMILES: CCc1cnc(-c2cnn3c(=O)cc(-c4ccc5c(c4)OCO5)[nH]c23)o1 [Example 14, 5-(2H-1,3-benzodioxol-5-yl)-3-(5-ethyl-1,3-oxazol-2-yl)-4H,7H-pyrazolo[1,5-a]pyrimidin-7-one]
- IC50: ≤ 10 µM

SMILES: CCn1ncc2cc(-c3cc(=O)n4ncc(-c5nc(C)cs5)c4[nH]3)ccc21 [Example 25, 5-(1-ethyl-1H-indazol-5-yl)-3-(4-methyl-1,3-thiazol-2-yl)-4H,7H-pyrazolo[1,5-a]pyrimidin-7-one]
- IC50: ≤ 10 µM

SMILES: CCn1ncc2cc(-c3cc(=O)n4ncc(-c5nccs5)c4[nH]3)ccc21 [Example 26, 5-(1-ethyl-1H-indazol-5-yl)-3-(thiazol-2-yl)-4H,7H-pyrazolo[1,5-a]pyrimidin-7-one]
- IC50: ≤ 10 µM

SMILES: CCc1coc(-c2cnn3c(=O)cc(-c4ccc5c(cnn5CC)c4)[nH]c23)n1 [Example 28, 5-(1-ethyl-1H-indazol-5-yl)-3-(4-ethyloxazol-2-yl)pyrazolo[1,5-a]pyrimidin-7(4H)-one]
- IC50: ≤ 10 µM

SMILES: CCn1ncc2cc(-c3cc(=O)n4nc(C)c(-c5ncco5)c4[nH]3)ccc21 [Example 29, 5-(1-ethyl-1H-indazol-5-yl)-2-methyl-3-(oxazol-2-yl)-4H,7H-pyrazolo[1,5-a]pyrimidin-7-one]
- IC50: ≤ 10 µM

SMILES: CCn1ncc2cc(-c3cc(=O)n4ncc(-c5nnc(C)o5)c4[nH]3)ccc21 [Example 31, 5-(1-ethyl-1H-indazol-5-yl)-3-(5-methyl-1,3,4-oxadiazol-2-yl)-4H,7H-pyrazolo[1,5-a]pyrimidin-7-one]
- IC50: ≤ 10 µM

SMILES: CCn1ncc2cc(-c3cc(=O)n4ncc(-c5ccn(C)n5)c4[nH]3)ccc21 [Example 32, 5-(1-ethyl-1H-indazol-5-yl)-3-(1-methyl-1H-pyrazol-3-yl)-4H,7H-pyrazolo[1,5-a]pyrimidin-7-one]
- IC50: ≤ 10 µM

SMILES: CCn1ncc2cc(-c3cc(=O)n4ncc(-c5nc6ccccc6o5)c4[nH]3)ccc21 [Example 33, 3-(benzo[d]oxazol-2-yl)-5-(1-ethyl-1H-indazol-5-yl)pyrazolo[1,5-a]pyrimidin-7(4H)-one]
- IC50: ≤ 10 µM

SMILES: CCOc1cc(-c2cc(=O)n3ncc(-c4ncco4)c3[nH]2)ccc1Cl [Example 34, 5-(4-chloro-3-ethoxyphenyl)-3-(oxazol-2-yl)-4H,7H-pyrazolo[1,5-a]pyrimidin-7-one]
- IC50: ≤ 10 µM

SMILES: CCOc1cc(-c2cc(=O)n3ncc(-c4ncc(CC)o4)c3[nH]2)ccc1Cl [Example 35, 5-(4-chloro-3-ethoxyphenyl)-3-(5-ethyloxazol-2-yl)-4H,7H-pyrazolo[1,5-a]pyrimidin-7-one]
- IC50: ≤ 10 µM

SMILES: CCOc1cc(-c2cc(=O)n3ncc(-c4ncc(C)o4)c3[nH]2)ccc1F [Example 36, 5-(3-ethoxy-4-fluorophenyl)-3-(5-methyloxazol-2-yl)-4H,7H-pyrazolo[1,5-a]pyrimidin-7-one]
- IC50: ≤ 10 µM

SMILES: Cc1cnc(-c2cnn3c(=O)cc(-c4ccc(Cl)c(OCC(F)(F)F)c4)[nH]c23)o1 [Example 37, 5-[4-chloro-3-(2,2,2-trifluoroethoxy)phenyl]-3-(5-methyloxazol-2-yl)-4H,7H-pyrazolo[1,5-a]pyrimidin-7-one]
- IC50: ≤ 10 µM

SMILES: Cc1cnc(-c2cnn3c(=O)cc(-c4ccc(Cl)c(OC(F)(F)F)c4)[nH]c23)o1 [Example 38, 5-[4-chloro-3-(trifluoromethoxy)phenyl]-3-(5-methyloxazol-2-yl)-4H,7H-pyrazolo[1,5-a]pyrimidin-7-one]
- IC50: ≤ 10 µM

SMILES: COc1cc(-c2cc(=O)n3ncc(-c4nccs4)c3[nH]2)ccc1Cl [Example 39, 5-(4-chloro-3-methoxyphenyl)-3-(thiazol-2-yl)-4H,7H-pyrazolo[1,5-a]pyrimidin-7-one]
- IC50: ≤ 10 µM

SMILES: CCn1ncc2cc(-c3cc(=O)n4ncc(-c5nc6ccccc6s5)c4[nH]3)ccc21 [Example 40, 3-(benzo[d]thiazol-2-yl)-5-(1-ethyl-1H-indazol-5-yl)pyrazolo[1,5-a]pyrimidin-7(4H)-one]
- IC50: ≤ 10 µM

SMILES: COc1cc(-c2cc(=O)n3ncc(-c4nc5ccccc5s4)c3[nH]2)ccc1Cl [Example 41, 3-(benzo[d]thiazol-2-yl)-5-(4-chloro-3-methoxyphenyl)pyrazolo[1,5-a]pyrimidin-7(4H)-one]
- IC50: ≤ 10 µM

SMILES: CCn1ncc2cc(-c3cc(=O)n4nc(C)c(-c5nc(C)co5)c4[nH]3)ccc21 [Example 42, 5-(1-ethyl-1H-indazol-5-yl)-2-methyl-3-(4-methyloxazol-2-yl)-4H,7H-pyrazolo[1,5-a]pyrimidin-7-one]
- IC50: ≤ 10 µM

SMILES: O=c1cc(-c2ccc3occc3c2)[nH]c2c(-c3nccs3)cnn12 [Example 44, 5-(benzofuran-5-yl)-3-(thiazol-2-yl)pyrazolo[1,5-a]pyrimidin-7(4H)-one]
- IC50: ≤ 10 µM

SMILES: COc1cc(-c2cc(=O)n3ncc(-c4nc5ccccc5o4)c3[nH]2)ccc1Cl [Example 45, 3-(benzo[d]oxazol-2-yl)-5-(4-chloro-3-methoxyphenyl)pyrazolo[1,5-a]pyrimidin-7(4H)-one]
- IC50: ≤ 10 µM

SMILES: CCOc1cc(-c2cc(=O)n3ncc(-c4ncc(C)o4)c3[nH]2)ccc1Cl [Example 46, 5-(4-chloro-3-ethoxyphenyl)-3-(5-methyloxazol-2-yl)pyrazolo[1,5-a]pyrimidin-7(4H)-one]
- IC50: ≤ 10 µM

SMILES: Cc1cnc(-c2cnn3c(=O)cc(-c4ccc(Cl)cc4)[nH]c23)o1 [Example 47, 5-(4-chlorophenyl)-3-(5-methyloxazol-2-yl)pyrazolo[1,5-a]pyrimidin-7(4H)-one]
- IC50: ≤ 10 µM

SMILES: O=c1cc(-c2ccc(Cl)cc2)[nH]c2c(-c3ncco3)cnn12 [Example 48, 5-(4-chlorophenyl)-3-(oxazol-2-yl)pyrazolo[1,5-a]pyrimidin-7(4H)-one]
- IC50: ≤ 10 µM

SMILES: CCn1nnc2cc(-c3cc(=O)n4ncc(-c5ncco5)c4[nH]3)ccc21 [Example 49, 5-(1-ethyl-1H-benzo[d][1,2,3]triazol-5-yl)-3-(oxazol-2-yl)pyrazolo[1,5-a]pyrimidin-7(4H)-one]
- IC50: ≤ 10 µM
